{"source": "patent US20250064062A1", "about": "“METHOD FOR INCREASING THE EFFICACY OF A HERBICIDE” (BASF SE, priority 2021, published 2025)", "format_in_all_cases": "in vivo", "conditions_in_all_cases": "Dicamba 560 g ae/ha alone; Induce 0.25% v/v", "key": {"[1]": {"test_system": "waterhemp (Amaranthus tuberculatus, AMATA)", "test": "Greenhouse trial: dicamba (Engenia) with copolymer CP1, postemergence weed control"}, "[2]": {"test_system": "common lambsquarters (Chenopodium album; OCHEAL)", "test": "Greenhouse trial: dicamba (Engenia) with copolymer CP1, postemergence weed control"}, "AMATA, ABUTH, CHEAL": {"test_system": "AMATA, ABUTH, CHEAL", "test": "Greenhouse trial: dicamba with copolymer CP1, mean over the three weed species"}, "[3]": {"test_system": "velvetleaf (Abutilon theophrasti, ABUTH)", "test": "Greenhouse trial: dicamba (Engenia) with copolymer CP1, postemergence weed control"}}}
{"smiles": "COc1c(Cl)ccc(Cl)c1C(=O)O", "note": "[Dicamba, dicamba]", "values": [{"measurement": "% Control (21 Days after Treatment) AMATA", "setting": "[1]", "result": 83, "unit": "%"}, {"measurement": "% Control (21 Days after Treatment) CHEAL", "setting": "[2]", "result": 86, "unit": "%"}, {"measurement": "% Control (21 Days after Treatment) Mean", "setting": "AMATA, ABUTH, CHEAL", "result": 74, "unit": "%"}, {"measurement": "% Control (21 Days after Treatment) ABUTH", "setting": "[3]", "result": 53, "unit": "%"}]}
